The results in this text go back to patent publication US20260224714A1, “CYCLING LYSOSOMAL TARGETING ANTIBODY CONJUGATES” (Lycia Therapeutics, Inc., priority 2023, published 2026).

Common to all, as to type: cell-based
Experiment [1] has as its system Alexa Fluor647 labelled human IgE. The experiment is described as follows: Uptake assay: internalization of Alexa Fluor 647 labelled IgE in ASGPR1/2 KO HepG2 cells (Example 6). The following applies: equimolar conjugate and AF647 IgE, normalized to unconjugated parent protein. Here is the method: (§1) The following experiments were performed with HepG2 hepatocellular carcinoma cells, grown in Eagle's Minimal Essential Media (EMEM) supplemented with 10% FBS and penicillin/streptomycin.
(§2) HepG2 cells (25,000) were plated in 96-well plates 48 hours before the experiment was performed. On the day of the experiment, indicated the conjugate was mixed with an equimolar stock of Alexa Fluor647 labelled human IgE (Enzo Life Sciences, BPD-DIA-HE 1) in fresh EMEM as a 600 nM stock. The precomplexed conjugate:IgE mixture was incubated at room temperature for 30 minutes. During the precomplexing step, media from HepG2 was removed, and 40 ul of EMEM with 1/100 Fc Receptor Blocking Solution (Biolegend Human TruStain FcX, 422302) was added. Cells incubated in the receptor blocking solution for 10 minutes while making serial dilutions (1:3) of conjugate:IgE stock solution in EMEM. 40 ul of the conjugate:IgE mixture in EMEM was then added to cells (six dilutions, with final concentrations ranging from 300 nM to 1.23 nM) for 2 hours before washing with DPBS and detaching with 0.25% Trypsin/EDTA. Cells were pelleted in 96-well conical bottom plates, washed once with FACS Buffer with BSA (Rockland Immunochemicals), and resuspended in FACS Buffer with BSA. Uptake of fluorescently labelled IgE was measured by analyzing median cellular AF647 intensity by flow cytometry.
(§3) Cells were incubated with equimolar ratio of conjugate and AF647 IgE at indicated concentrations, with data normalized to unconjugated parent protein (Oma S35HWY57H-LC).

Experiment [2] has as its system recombinant IgE. In words: Degradation of super-stoichiometric levels of target in HepG2 cells (Example 13, Table 31). Conditions: 1 nM conjugate and 25 nM IgE for three days, (A-B)/C IgE depleted relative to conjugate, average of two replicate wells. As for the experimental part:
as §1
For evaluation of compounds in a high throughput format, 25,000 HepG2 cells were plated in a 96-well plate. The following day, 50 ul of 1 nM conjugate and 25 nM recombinant IgE in EMEM were added to the cells. 50 ul of the initial stock of conjugate:IgE was saved to quantify for an initial time point. Three days later, the media was collected from cells, and both initial and 72 hour time points were quantified for IgE concentration using the MSD assay.
HepG2 cells were incubated in media containing 1 nM conjugate and 25 nM IgE for three days. Concentrations of IgE at beginning and end of experiment were quantified by ELISA-based assay. Molar equivalents of IgE depleted relative to conjugate added are shown, calculated as (A-B)/C, where A is the initial concentration of IgE, B is the concentration of IgE at day three, and C is the concentration of conjugate. Reported values are the average of the values of two replicate wells.

Experiment [3] relates to HepG2 cells. The experiment is described as follows: Externalization of conjugates from a cell following internalization (cycling), high-throughput format (Example 11). The following applies: 50 nM conjugate 1 hour, stringent washes, Alexa Fluor 647-labelled a-human IgG 1 hour, FACS, normalized to unconjugated parent protein, average of two replicate wells. Here is the method:
as §1
The method was also adapted to a high-throughput format. In this assay, 25,000 HepG2 cells were plated in 96-well plates 48 hours before performing the experiment. The day of the experiment, cells were incubated with conjugate at indicated concentrations for 1 hour. Cells were then placed on ice to prevent trafficking/recycling during wash steps, and washed once with DPBS, once with sodium acetate buffer (20 mM, 150 mM NaCl, pH 5.2), once with Earle's Balanced Salt Solution (EBSS) adjusted to pH 2.5, and once again with DPBS, to remove conjugate from media and cell surface. Afterwards, 100 ul of prewarmed (to 37° C.) EMEM with 1 μg/ml of human a-IgG antibody conjugated to Alexa Fluor647 fluorophores was added to cells for 1 hour before washing with DPBS and detaching with 0.25% Trypsin/EDTA. Cells were pelleted in 96-well conical bottom plates, washed once with FACS Buffer with BSA (Rockland Immunochemicals), resuspended FACS Buffer with BSA and median AF647 intensity was analyzed by flow cytometry. The amount of conjugate capable of cycling to the cell surface (being externalized from the cell) and binding to the Alexa Fluor647 labelled α-IgG was measured by analyzing median cellular 647 fluorescence intensity by flow cytometry. […]. Reported values are the average of the values of two replicate wells.

Experiment [4] deals with Alexa Fluor647 labelled human IgE. In words: Uptake assay: internalization of Alexa Fluor 647 labelled IgE in wild type HepG2 cells (Example 6). Conditions: equimolar conjugate and AF647 IgE, 2 hours, median cellular AF647 intensity by flow cytometry, normalized to unconjugated parent protein. Here is the method: as §1, §2, §3
In general terms: A flow cytometer gives signals particle by particle.

Experiment [5] has as its system human IgE. The experiment is described as follows: Degradation of initial and subsequent dose of target in HepG2 cells (Example 12, Table 30). Conditions: normalized to unconjugated; for Normalized Fluorescence Post Wash Median Green: after wash, probe-conjugated IgE added for 4 hours, subsequent dose of target; for Normalized Fluorescence Precomplex Median Deep Red: precomplexed equimolar conjugate:IgE (cathepsin-cleavable quenched fluorescent probe) added for 2 hours, initial dose of target. Here is the method:
as §1
HepG2 cells (25,000) were plated in 96-well plates 48 hours before performing the experiment. On the day of the experiment, indicated conjugate was diluted in fresh EMEM as a 2× stock, and mixed with an equimolar stock of human IgE (Enzo Life Sciences, BPD-DIA-HE 1) conjugated to a cathepsin-cleavable quenched fluorescent probe. The precomplexed conjugate:IgE mixture was incubated at 37 degrees Celsius for 30 minutes. Media from HepG2 was removed, and conjugate:IgE mixture in EMEM was added to cells for 2 hours. Cells were then placed on ice to prevent trafficking/recycling during wash steps, and washed once with DPBS, once with sodium acetate buffer (20 mM, 150 mM NaCl, pH 5.2), once with Earle's Balanced Salt Solution (EBSS) adjusted to pH 2.5, and once again with DPBS, to remove conjugate from media and cell surface. Afterwards, 100 ul of prewarmed (to 37 degrees Celsius) EMEM with cathepsin-cleavable quenched fluorescent probe-conjugated IgE was added to cells for 4 hours before washing with DPBS and detaching with 0.25% Trypsin/EDTA. Cells were pelleted in 96-well conical bottom plates, washed once with FACS Buffer with BSA (Rockland Immunochemicals), resuspended FACS Buffer with BSA and median 488 and 647 intensity was analyzed by flow cytometry. Delivery of labelled IgE to the lysosome and subsequent cleavage of initial precomplexed IgE was measured by analyzing median cellular 647 intensity, while cleavage of the post wash addition of IgE, which should only be degraded by recycling conjugates which released the first round of precomplexed IgE, was analyzed by median cellular 488 intensity. HepG2 cells were treated with human IgE (Enzo Life Sciences, BPD-DIA-HE1) conjugated to a cathepsin-cleavable quenched deep red (647) fluorescent probe precomplexed to conjugate fortwo hours, then washed, and fresh media with IgE conjugated to a green (488) cathepsin-cleavable fluorescent probe was then added without conjugate. […] Fluorescence values were measured by FACS and normalized to unconjugated parent protein. Reported values are the average of the values of two replicate wells.

Experiment [6] has as its system LysoLight-labelled human IgE. In words: Lysosomal degradation of LysoLight-labelled IgE in HepG2 cells, live cell imaging (Example 7). Conditions: equimolar conjugate:LysoLight IgE, area under the curve of deep red fluorescence over three days, normalized to unconjugated parent protein. Here is the method: as §1
HepG2 cells (15,000) were plated in 96-well plates 72 hours before performing the experiment. On the day of the experiment, indicated the conjugate was diluted in fresh EMEM and mixed with an equimolar stock of LysoLight-labelled human IgE (Enzo Life Sciences, BPD-DIA-HE1), at 200 nM of each compound. The precomplexed conjugate:IgE mixture was incubated at room temperature for 30 minutes. During the precomplexing step, media from HepG2 was removed, and 40 ul of EMEM with 1/100 Fc Receptor Blocking Solution (Biolegend Human TruStain FcX, 422302) was added. Cells incubated in the receptor blocking solution for 10 minutes while making serial dilutions (1:3) of conjugate:IgE stock solution in EMEM. 40 ul of the conjugate:IgE mixture in EMEM was then added to cells (five dilutions, with final concentrations ranging from 100 nM to 1.23 nM). Cells were placed in an IncuCyte Live-Cell Analysis System (Sartorius) for long term live cell imaging analysis (10× magnification, 3 images per well). One hour after addition of compound, image acquisition to measure red fluorescence from the LysoLight probe was started, with further Images collected every hour for 72 hours. Fluorescence of the LysoLight probe only occurs when cleaved by lysosomal cathepsin proteases, confirming lysosomal delivery and degradation of target. After 72 hours, mean red fluorescence was measured for each time point, and the area under the curve of fluorescence overtime was used to measure total degradation over the 3-day time period.

Turning to `CC(=O)N[C@@H]1[C@@H](O)[C@@H](O)[C@@H](CO)O[C@@H]1CCCOCCOCCNC(=O)NCCOCCOCCOCCOCCOCCNC(=O)c1ccc(N2C(=O)C=CC2=O)cc1` [Compound 2319-C, N-(29-((2R,3R,4R,5R,6R)-3-acetamido-4,5-dihydroxy-6-(hydroxymethyl)tetrahydro-2H-pyran-2-yl)-19-oxo-3,6,9,12,15,23,26-heptaoxa-18,20-diazanonacosyl)-4-(2,5-dioxo-2,5-dihydro-1H-pyrrol-1-yl)benzamide], the “Normalized Fluorescence 100 nM ASGPR KO” value in experiment [1] is given as 1.4. Further, the “Average Degradation (Molar equivalents)” value in experiment [2] stood at 2.1 Molar equivalents. Also, the “Normalized Fluorescence” value in experiment [3] came out at 5.0. In experiment [4], the “Normalized Fluorescence 3.7 nM WT” value was 2.3 and the “Normalized Fluorescence 100 nM WT” value stood at 16.0. In experiment [5], the “Normalized Fluorescence Post Wash Median Green” value is recorded as 1.1 and the “Normalized Fluorescence Precomplex Median Deep Red” value amounted to 1.2. In addition, in experiment [6], the “Normalized Fluorescence 3.7 nM” value was 1.1 and the “Normalized Fluorescence 100 nM” value came to 1.0.
Regarding `CC(=O)N[C@@H]1[C@@H](O)[C@@H](O)[C@@H](CO)O[C@@H]1CCCOCCOCCNC(=O)NCCCC(CCCNC(=O)NCCOCCOCCC[C@H]1O[C@H](CO)[C@H](O)[C@H](O)[C@H]1NC(C)=O)(CCCNC(=O)NCCOCCOCCC[C@H]1O[C@H](CO)[C@H](O)[C@H](O)[C@H]1NC(C)=O)NC(=O)NCCOCCOCCOCCNS(=O)(=O)c1ccc(N2C(=O)C=CC2=O)cc1` [Compound 2315], the “Normalized Fluorescence 100 nM ASGPR KO” value in experiment [1] stood at 1.1. For the same compound, the “Average Degradation (Molar equivalents)” value in experiment [2] was determined as 4.5 Molar equivalents. For the same compound, in experiment [3], the “Normalized Fluorescence” value turned out to be 48.8. Also, in experiment [4], the “Normalized Fluorescence 3.7 nM WT” value was found to be 77.7 and the “Normalized Fluorescence 100 nM WT” value is 275.7. Further, in experiment [5], the “Normalized Fluorescence Post Wash Median Green” value is 3.1 and the “Normalized Fluorescence Precomplex Median Deep Red” value was found to be 3.3. Besides, in experiment [6], the “Normalized Fluorescence 3.7 nM” value is recorded as 15.6 and the “Normalized Fluorescence 100 nM” value was found to be 4.0.
On to `O=C(CCOCCOCCOCCNS(=O)(=O)c1ccc(N2C(=O)C=CC2=O)cc1)NC(CCCNC(=O)NCCOCCOCCCc1ccnc(N[C@H]2CO[C@H](CO)[C@H](O)[C@@H]2O)n1)(CCCNC(=O)NCCOCCOCCCc1ccnc(N[C@H]2CO[C@H](CO)[C@H](O)[C@@H]2O)n1)CCCNC(=O)NCCOCCOCCCc1ccnc(N[C@H]2CO[C@H](CO)[C@H](O)[C@@H]2O)n1` [Compound 2311], for which, in experiment [1], the “Normalized Fluorescence 100 nM ASGPR KO” value is reported as 1.1. In addition, in experiment [2], the “Average Degradation (Molar equivalents)” value is given as 0.5 Molar equivalents. Moreover, in experiment [3], the “Normalized Fluorescence” value was found to be 11.6. Moreover, in experiment [4], the “Normalized Fluorescence 3.7 nM WT” value worked out at 22.6 and the “Normalized Fluorescence 100 nM WT” value turned out to be 92.9. Besides, in experiment [5], the “Normalized Fluorescence Post Wash Median Green” value came out at 1.7 and the “Normalized Fluorescence Precomplex Median Deep Red” value worked out at 2.0. In experiment [6], the “Normalized Fluorescence 3.7 nM” value worked out at 2.2 and the “Normalized Fluorescence 100 nM” value is reported as 2.2.
On to `CC(=O)N[C@@H]1[C@@H](O)[C@@H](O)[C@@H](CO)O[C@@H]1CCCOCCOCCNC(=O)NCCCC(CCCNC(=O)NCCOCCOCCC[C@H]1O[C@H](CO)[C@H](O)[C@H](O)[C@H]1NC(C)=O)(CCCNC(=O)NCCOCCOCCC[C@H]1O[C@H](CO)[C@H](O)[C@H](O)[C@H]1NC(C)=O)NC(=O)NCCOCCOCCOCCNC(=O)c1ccc(N2C(=O)C=CC2=O)cc1` [Compound 2314], for which the “Normalized Fluorescence 100 nM ASGPR KO” value in experiment [1] is listed as 1.0. The “Average Degradation (Molar equivalents)” value in experiment [2] is recorded as 6.5 Molar equivalents. Moreover, the “Normalized Fluorescence” value in experiment [3] stood at 40.5. Moreover, in experiment [4], the “Normalized Fluorescence 3.7 nM WT” value stood at 69.0 and the “Normalized Fluorescence 100 nM WT” value came to 265.7. In experiment [5], the “Normalized Fluorescence Post Wash Median Green” value was determined as 3.5 and the “Normalized Fluorescence Precomplex Median Deep Red” value is on record as 3.6. In addition, in experiment [6], the “Normalized Fluorescence 3.7 nM” value is 13.9 and the “Normalized Fluorescence 100 nM” value came to 3.9.
